Source: ChEMBL document CHEMBL5608201, “Discovery and optimization of thiazole-based quorum sensing inhibitors as potent blockers of Pseudomonas aeruginosa pathogenicity” (Eur J Med Chem, 2024)
In brackets after ≈: the same amount, converted by molar mass.

What was measured:
[1] = target: T1, Transcriptional regulator MvfR (Pseudomonas aeruginosa PA14, UniProt A0A072ZLE6); experiment: Inverse agonist activity at Pseudomonas aeruginosa PqsR extracted from Escherichia coli Dh5alpha co-expressing lacZ incubated with test compound in presence of pseudomonas quinolone signal (PQS) by ONPG/heterologous reporter gene assay
T1 sequence (A0A072ZLE6 whole entry): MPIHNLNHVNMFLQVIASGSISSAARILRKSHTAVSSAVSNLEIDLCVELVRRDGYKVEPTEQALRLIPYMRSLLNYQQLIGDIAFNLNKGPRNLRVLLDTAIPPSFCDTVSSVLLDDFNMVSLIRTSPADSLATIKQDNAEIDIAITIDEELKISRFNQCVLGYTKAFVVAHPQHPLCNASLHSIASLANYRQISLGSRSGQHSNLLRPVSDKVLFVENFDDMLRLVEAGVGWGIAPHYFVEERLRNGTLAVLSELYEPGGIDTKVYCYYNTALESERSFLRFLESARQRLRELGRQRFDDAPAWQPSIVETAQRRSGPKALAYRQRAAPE

Pseudomonas aeruginosa = experiment: Antivirulence activity against Pseudomonas aeruginosa PA14 assessed as inhibition of pyocyanin biosynthesis incubated for 16 hrs under agitation by photometric analysis; type: functional, organism-based; conditions: PA14, 16 h
[2] = Metabolic stability in mouse liver microsomes assessed as half life at 1 uM measured after 30 mins by HPLC-MS/MS analysis; type: ADME, Microsome
[3] = Kinetic aqueous solubility of the compound in PBS buffer incubated for 5 mins by turbidimetric aqueous solubility assay; type: physicochemical; conditions: read-out: Kinetic_solubility
[4] = Lipophilicity, log D of the compound; type: physicochemical; conditions: octanol/water

Compound	IC50 [1]	IC50 (Pseudomonas aeruginosa)	half-life at 1 µM [2]	solubility kinetic at 5 min [3]	logD [4]
Clc1cc(NCc2cnc(-c3ccc(Oc4ccccc4)cc3)s2)ccn1	9 nM	718 nM	55 min	2 µM (≈ 0.788 µg/mL)	4.16
FC(F)(F)c1cc(NCc2nc(-c3ccc(Oc4ccccc4)cc3)cs2)ccn1	712 nM	> 5000 nM	13 min	45 µM (≈ 19.2 µg/mL)	–
CC(C)Oc1ccc(-c2ncc(CNc3cc(C#N)nc(C(F)(F)F)c3)s2)cc1	84 nM	226 nM	32 min	6 µM (≈ 2.51 µg/mL)	5.12
FC(F)(F)c1cc(NCc2cnc(-c3ccc(Oc4ccccc4)cc3)s2)ccn1	17 nM	274 nM	24 min	6 µM (≈ 2.56 µg/mL)	3.29
CC(C)Oc1ccc(-c2ncc(CNc3cc(Cl)nc(C(F)(F)F)c3)s2)cc1Cl	10 nM	109 nM	28 min	7 µM (≈ 3.24 µg/mL)	5.21
FC(F)(F)c1cc(NCc2cc(-c3ccc(Oc4ccccc4)cc3)n[nH]2)ccn1	117 nM	524 nM	23 min	15 µM (≈ 6.16 µg/mL)	4.35
FC(F)(F)c1cc(OCc2cnc(-c3ccc(Oc4ccccc4)cc3)s2)ccn1	–	> 5000 nM	–	–	3.87
FC(F)(F)c1cc(SCc2cnc(-c3ccc(Oc4ccccc4)cc3)s2)ccn1	111 nM	2370 nM	11 min	7 µM (≈ 3.11 µg/mL)	4.03
FC(F)(F)c1cc(NCc2ncsc2-c2ccc(Oc3ccccc3)cc2)ccn1	> 5 nM	> 5 nM	–	–	–
COc1ccc(-c2ncc(CNc3ccnc(C(F)(F)F)c3)s2)cc1Cl	40 nM	215 nM	1 min	25 µM (≈ 10 µg/mL)	4.84
FC(F)(F)c1cc(NCc2nnc(-c3ccc(Oc4ccccc4)cc3)[nH]2)ccn1	93 nM	696 nM	23 min	48 µM (≈ 19.7 µg/mL)	3.96
CC(C)Oc1ccc(-c2ncc(CNc3cc(Cl)nc(C(F)(F)F)c3)s2)cc1	8 nM	87 nM	15 min	35 µM (≈ 15 µg/mL)	5.4
CC(C)Oc1ccc(-c2ncc(CNc3ccnc(Cl)c3)s2)cc1	45 nM	302 nM	22 min	22 µM (≈ 7.92 µg/mL)	5.09
COc1ccc(-c2ncc(CNc3ccnc(C(F)(F)F)c3)s2)cc1C	58 nM	576 nM	1 min	45 µM (≈ 17.1 µg/mL)	4.02
FC(F)(F)c1cc(NCc2ccc(-c3ccc(Oc4ccccc4)cc3)o2)ccn1	–	> 5000 nM	–	63 µM (≈ 25.9 µg/mL)	–
FC(F)(F)c1cc(NCc2cnc(-c3ccc(Cl)nc3)s2)ccn1	221 nM	> 5 nM	49 min	200 µM (≈ 74.2 µg/mL)	–
CC(C)Oc1ccc(-c2ncc(CNc3ccnc(C(F)(F)F)c3)s2)cc1	18 nM	118 nM	29 min	18 µM (≈ 7.08 µg/mL)	4.01
